Values joined by “and” are separate entries in the source; they are usually repeats but may differ in a detail not shown here. Equal values may be shown once.
System: MDA-MB-231 complex spheroid viability
Test: Anticancer human tumor MDA-MB-231/ATCC cell line growth inhibition;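 further: drug exposure lasted 7 days starting on day 3 of spheroid growth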
Settings: for viability, T/C: stronger effect = lower value; for IC50: curve of compound
Source text: Multicellular complex tumor spheroid response to LSD1 Inhibitor Iadademstat in combination with a variety of drugs and investigational agents in selected tumor cell lines
The current study was undertaken to assess response to LSD1 inhibitors in combination with standard-of-care drugs and investigational agents in solid tumor complex spheroid models as well as in the K-562 leukemia. Complex spheroids include a stromal component modeled by human endothelial cells (HUVEC) and fibroblasts modeled by human mesenchymal stem cells (MSCs). The concentration ranges selected for each drug and investigational agent were based upon clinically achievable concentrations if the clinical Cmax of the agent was known.
Compounds. The drugs and investigational agents used in this study are listed on Table 1. All of the agents used, including staurosporine (NSC755774) and gemcitabine (NSC613327), were obtained from the Developmental Therapeutics Program, NCI. FDA-approved anticancer drugs are available from the NCI at http://dtp.nci.nih.gov/branches/dscb/oncology_drugset_explanation.html. Drugs and investigational agents were >95% pure by proton nuclear magnetic resonance (NMR) and liquid chromatography/mass spectrometry (LC/MS). Stock solutions were prepared at 400x in DMSO, stored at -70 degrees C, and diluted in fresh medium prior to their use. The final concentration of DMSO in cell culture wells never exceeded 0.25% (v/v). The FDA-approved anticancer drug set is available from the Developmental Therapeutics Program at https://dtp.cancer.gov/organization/dscb/obtaining/available_plates.htm. All drugs and investigational agents were tested over a range starting from a high concentration at or near the clinical Cmax and decreasing in half-log increments. If the clinical Cmax for an agent had not been determined, the highest concentration tested was 10 microM.
Cell Lines. The patient-derived cancer cell (PDC) lines: 292921-168-R-J2-PDC, K24384-001-R-PDC, and 521955-158-R2-J5-PDC pancreatic carcinomas, 556581-035-R-J1 ovarian carcinoma, 324938-238-R-J1-PDC, 855422-203-R-J1-PDC and 883617-216-R-J1-PDC urothelial bladder carcinomas, 743489-274-T-PDC renal cell carcinoma, 138582-R-J1 Merkel cell tumor, K60290-347-R-J1 and K57222-313-R-J1-PDC glioblastomas, 653999-131-R-J2-PDC, LG0703-F948-PDC, and 349418-098-R-PDC non-small cell lung carcinomas, 885512-296-R-J2-PDC, 171881-019-R-J1-PDC breast carcinomas and 186277-243-T-J2-PDC and 233499-124-R-J2-PDC colon carcinomas were obtained from the NCI Patient-Derived Models Repository (PDMR, https://pdmr.cancer.gov). The established cell lines NCI/ADR-RES (RRID:CVCL_14520 and OVCAR-5 (RRID:CVCL_1628) ovarian carcinomas, 786-O (RRID:CVCL_1051) and A498 (RRID:CVCL_A498) renal cell carcinoma, NCI-H211 (ATCC, cat. CRL-5824; RRID:CVCL_1529), NCI-H196 (ATCC, cat. CRL-5823, RRID:CVCL_1509), SW 1271 (ATCC, cat. CRL-2177, RRID:CVCL_1716) and NCI-H1876 (ATCC, cat. CRL-5902, RRID:CVCL_1503) small cell lung carcinomas, MDA-MB-231 (RRID:CVCL_0062) and MDA-MB-468 (RRID:CVCL_0419)breast carcinomas (10-12). Pooled donor human umbilical vein endothelial cells (HUVEC, Lonza, cat. CC-2519) and human mesenchymal stem cells (hMSC, Lonza, cat. PT-2501) were purchased from Lonza (Walkersville, MD).
Cell Culture. All cells were maintained in an incubator at 37 degrees C and 5% CO2 with 95% humidity. The PDC lines were cultured according to standard operating procedures established by the NCI PDMR (https://pdmr.cancer.gov). Briefly all PDCs were thawed and cultured in Matrigel-coated flasks prepared with a working solution of 1X Ham's F-12 nutrient mix, without supplementation (Invitrogen, Waltham, MA, cat. 11765054), 100 U/mL penicillin-streptomycin (Invitrogen, cat. 15140122), and 2.5% Matrigel (Corning Inc., Corning, NY, cat. 354248) for the first three passages. […]

Row | IC50 | SMILES | viability, T/C (compound 0.00316 µM) | viability, T/C (compound 0.01 µM) | viability, T/C (compound 0.0316 µM) | viability, T/C (compound 0.1 µM) | viability, T/C (compound 0.316 µM) | viability, T/C (compound 1 µM) | other results
1 | 1.09 nM and < 0.316 nM | CC(C)CC(NC(=O)C(Cc1ccccc1)NC(=O)c1cnccn1)B(O)O (stereo not drawn) | 1.86% and 0.16% | 0.35% and 0.17% | 0.31% and 0.14% | 0.31% and 0.17% | – | – | viability, T/C (compound 0.000316 µM): 104% and 34.9%
2 | 7.67 nM and 4.84 nM | CC(C)CC(NC(=O)CNC(=O)c1cc(Cl)ccc1Cl)B1OC(=O)CC(CC(=O)O)(C(=O)O)O1 (stereo not drawn) | 85.2% and 70.2% | 39.5% and 14.9% | 6.41% and 1.24% | 0.95% and 0.27% | – | – | viability, T/C (compound 0.000316 µM): 99% and 100%; viability, T/C (compound 0.001 µM): 104% and 105%
3 | > 10000 nM | CC(C)c1c(-c2ccccc2)nc2c(C#N)c[nH]n2c1=O | – | – | 101% and 102% | 94.7% and 104% | 97.9% and 117% | 106% and 112% | viability, T/C (compound 3.16 µM): 108% and 121%; viability, T/C (compound 10 µM): 102% and 113%
4 | 7610 nM and 5060 nM | CC1(C)CCC(CN2CCN(c3ccc(C(=O)NS(=O)(=O)c4ccc(NCC5CCOCC5)c([N+](=O)[O-])c4)c(Oc4cnc5[nH]ccc5c4)c3)CC2)=C(c2ccc(Cl)cc2)C1 | – | – | 109% | 105% and 107% | 100% and 114% | 103% and 123% | viability, T/C (compound 3.16 µM): 102% and 83.3%
5 | – | CC1COCCN1c1cc(-c2ccnn2C)c2ccnc(-c3ccn[nH]3)c2n1 (stereo not drawn) | 92.8% and 41% | 80.5% and 30.1% | 51.5% and 19.3% | 35.9% and 18.3% | 31.8% and 18.9% | 28.6% and 22.4% | –
6 | 1280 nM and 1530 nM | CC1COCCN1c1cc(C2(S(C)(=N)=O)CC2)nc(-c2ccnc3[nH]ccc23)n1 (stereo not drawn) | – | – | 105% and 111% | 98.6% and 111% | 79.9% and 109% | 53.7% and 62% | viability, T/C (compound 3.16 µM): 36.3% and 31.3%; viability, T/C (compound 10 µM): 28.1% and 24%
7 | – | CCN(c1cc(-c2ccc(CN3CCOCC3)cc2)cc(C(=O)NCc2c(C)cc(C)[nH]c2=O)c1C)C1CCOCC1 | – | – | – | – | – | – | viability, T/C (compound 0.00949 µM): 90.6% and 108%; viability, T/C (compound 0.03 µM): 93.6% and 88.1%; viability, T/C (compound 0.0949 µM): 82.4% and 61.5%; viability, T/C (compound 0.3 µM): 74.9% and 42.3%; viability, T/C (compound 0.949 µM): 66.3% and 25.8%; viability, T/C (compound 3 µM): 57.7% and 15%
8 | 1.99 nM and 2.01 nM | CC[C@@]1(O)C(=O)OCc2c1cc1n(c2=O)Cc2cc3c(CN(C)C)c(O)ccc3nc2-1 | 39.1% and 39.5% | 25.3% and 25.9% | 17.1% and 22.8% | 10.3% and 16% | – | – | viability, T/C (compound 0.000316 µM): 89.7% and 88.6%; viability, T/C (compound 0.001 µM): 64.9% and 65.5%
9 | < 0.949 nM | CCc1c2c(nc3ccc(O)cc13)-c1cc3c(c(=O)n1C2)COC(=O)[C@]3(O)CC | – | – | – | – | – | – | viability, T/C (compound 0.000949 µM): 13.4% and 18%; viability, T/C (compound 0.003 µM): 8.18% and 14.8%; viability, T/C (compound 0.00949 µM): 7.45% and 15.4%; viability, T/C (compound 0.03 µM): 9.98% and 5.59%; viability, T/C (compound 0.0949 µM): 5.58% and 0.92%; viability, T/C (compound 0.3 µM): 2.32% and 0.78%
10 | 108 nM and 30.6 nM | COc1cc(C2c3cc4c(cc3C(OC3OC5COC(C)OC5C(O)C3O)C3COC(=O)C23)OCO4)cc(OC)c1O (stereo not drawn) | – | – | – | – | – | – | viability, T/C (compound 0.00949 µM): 96.1% and 79.9%; viability, T/C (compound 0.03 µM): 76.1% and 47.9%; viability, T/C (compound 0.0949 µM): 49.9% and 32.6%; viability, T/C (compound 0.3 µM): 35% and 22.9%; viability, T/C (compound 0.949 µM): 13.5% and 10.3%; viability, T/C (compound 3 µM): 6.1% and 8.34%
11 | 181 nM and 31.7 nM | COc1cc(Nc2ncc3c(n2)-c2ccc(Cl)cc2C(c2c(F)cccc2OC)=NC3)ccc1C(=O)O | 78.5% and 52.8% | 60.9% and 55.1% | 56.1% and 50.4% | 57% and 42.6% | 50.3% and 38.8% | 41.5% and 23.2% | –

Reference: PubChem BioAssay AID1918953 (Molecular Pharmacology Branch, DTP, NCI, 2023)
